Reference: patent US10227331B2 (priority 2015, dated 2019)

Tests used:
[1] = system: P. aeruginosa expressing IMP-1, efflux+ (MB9798); format: cell-based, Pseudomonas aeruginosa; settings: for P. aeruginosa expressing IMP-1, efflux+ (MB9798) MITC95: imipenem at 2 μg/mL, in the presence of a class A, C, D serine β-lactamase inhibitor closely related to relebactam; for Efflux ratio: ratio MITC95 PA_9798/MITC95 PA_9799
Source text: (§1) The strain background is Pseudomonas aeruginosa PAO1.

[2] = molecular target: VIM-1 (Pseudomonas aeruginosa (strain ATCC 15692 / DSM 22644 / CIP 104116 / JCM 14847 / LMG 12228 / 1C / PRS 101 / PAO1), UniProt A0A0F7KYQ8); test: biochemical; settings: CCF2-FA substrate, 2 hours at 25° C
How it was run: (§2)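 Class B activity is measured in the presence of compound by fluorescence with CCF2-FA after a 2-hour incubation at 25° C. IC50 is taken from a 4-parameter fit of semi-logarithmic dose-response data.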

[3] = molecular target: NDM-1 (Klebsiella pneumoniae, UniProt C7C422); test: biochemical; format: biochemical; settings: CCF2-FA substrate, 2 hours at 25° C; read-out: NDM-1 IC50
How it was run: as §2

[4] = molecular target: IMP-1 (Serratia marcescens, UniProt P52699); test: biochemical; format: biochemical; settings: CCF2-FA substrate, 2 hours at 25° C; read-out: IMP-1 IC50
How it was run: as §2

[5] = system: Serratia marcescens expressing IMP-1 (CL5741); format: cell-based; settings: with imipenem 1 μg/ml, 95% inhibition of bacterial growth; for Serratia marcescens MITC95: IMP-1 (CL5741)
How it was run: (§3)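 Clinical strains grown overnight on blood agar, then diluted 1:100 in 1.1× CAMHB and exposed to test compound with imipenem at 1 μg/ml. Incubation was 22–24 h at 35° C; growth was read by absorbance to find the compound concentration restoring imipenem susceptibility.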

[6] = system: Escherichia coli expressing NDM-1 (CLB30005, CLB30016); format: cell-based; settings: with imipenem 1 μg/ml, 95% inhibition of bacterial growth; for Escherichia coli MITC95: NDM-1 (CLB30016)
How it was run: as §3

[7] = system: Klebsiella pneumoniae expressing VIM-1 (IHMA599644); format: cell-based; settings: with imipenem 1 μg/ml, 95% inhibition of bacterial growth; for Klebsiella pneumoniae MITC95: VIM-1 (IHMA599644)
How it was run: as §3

[8] = system: P. aeruginosa expressing IMP-1, efflux− (MB9799); test: Efflux: concentration of MBL inhibitor which restores susceptibility to imipenem; format: cell-based, Pseudomonas aeruginosa; settings: imipenem at 2 μg/mL, in the presence of a class A, C, D serine β-lactamase inhibitor closely related to relebactam
Source text: as §1

Sequence of NDM-1 (C7C422 whole entry, looked up, species assumed): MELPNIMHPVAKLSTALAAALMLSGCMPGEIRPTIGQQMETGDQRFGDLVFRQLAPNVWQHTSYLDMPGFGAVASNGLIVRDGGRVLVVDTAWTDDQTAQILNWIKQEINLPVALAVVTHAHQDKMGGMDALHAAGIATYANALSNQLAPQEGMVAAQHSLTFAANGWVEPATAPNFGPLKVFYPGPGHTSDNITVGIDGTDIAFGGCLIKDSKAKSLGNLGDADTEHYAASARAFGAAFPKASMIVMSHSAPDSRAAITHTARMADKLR
Sequence of IMP-1 (P52699 whole entry, looked up, species assumed): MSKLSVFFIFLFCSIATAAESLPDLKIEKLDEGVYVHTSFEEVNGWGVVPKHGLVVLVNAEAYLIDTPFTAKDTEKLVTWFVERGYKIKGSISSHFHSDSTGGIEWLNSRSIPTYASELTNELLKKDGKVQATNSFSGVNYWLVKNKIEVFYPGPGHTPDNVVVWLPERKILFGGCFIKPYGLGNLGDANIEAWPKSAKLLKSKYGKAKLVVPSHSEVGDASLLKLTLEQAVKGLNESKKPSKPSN

CS(=O)(=O)c1ccc(-c2ccc(C3CCNCC3)cc2)c(-c2nnn[nH]2)c1S(N)(=O)=O [Example 236, 4-(methylsulfonyl)-4′-(piperidin-4-yl)-2-(1H-tetrazol-5-yl)-[1,1′-biphenyl]-3-sulfonamide]
P. aeruginosa expressing IMP-1, efflux+ (MB9798) MITC95 [1]: 6.25 µM
Efflux ratio [1]: 8.00
IC50 [2]: 0.127 nM
IC50 [3]: 2.12 nM
IC50 [4]: 0.103 nM
Serratia marcescens expressing IMP-1 (CL5741) MITC95 [5]: 3.125 µM
Escherichia coli expressing NDM-1 (CLB30016) MITC95 [6]: 3.125 µM
Klebsiella pneumoniae expressing VIM-1 (IHMA599644) MITC95 [7]: 3.125 µM
P. aeruginosa expressing IMP-1, efflux− (MB9799) MITC95 [8]: 0.7813 µM

CS(=O)(=O)Nc1nc2c(-c3ccc(S(=O)(=O)CCN)c(S(N)(=O)=O)c3-c3nn[nH]n3)cccc2s1 [Example 83, 6-(2-aminoethylsulfonyl)-3-(2-(methylsulfonamido)benzo[d]thiazol-4-yl)-2-(2H-tetrazol-5-yl)benzenesulfonamide]
P. aeruginosa expressing IMP-1, efflux+ (MB9798) MITC95 [1]: 12.5 µM
Efflux ratio [1]: 2.00
IC50 [2]: 0.263 nM
IC50 [3]: 0.117 nM
IC50 [4]: 0.341 nM
Serratia marcescens expressing IMP-1 (CL5741) MITC95 [5]: 6.25 µM
Escherichia coli expressing NDM-1 (CLB30016) MITC95 [6]: 6.25 µM
Klebsiella pneumoniae expressing VIM-1 (IHMA599644) MITC95 [7]: 12.5 µM
P. aeruginosa expressing IMP-1, efflux− (MB9799) MITC95 [8]: 6.25 µM

Nc1n[nH]c2ccc(-c3ccc(S(=O)(=O)C4CNC4)c(S(N)(=O)=O)c3-c3nnn[nH]3)cc12 [Example 264, 3-(3-amino-1H-indazol-5-yl)-6-(azetidin-3-ylsulfonyl)-2-(1H-tetrazol-5-yl) benzenesulfonamide]
P. aeruginosa expressing IMP-1, efflux+ (MB9798) MITC95 [1]: 6.25 µM
Efflux ratio [1]: 8.00
IC50 [2]: 0.175 nM
IC50 [3]: 0.364 nM
IC50 [4]: 1.82 nM
Serratia marcescens MITC95 [5]: 1.563 µM
Escherichia coli MITC95 [6]: 3.125 µM
Klebsiella pneumoniae MITC95 [7]: 3.125 µM
P. aeruginosa expressing IMP-1, efflux− (MB9799) MITC95 [8]: 0.7813 µM

NCCNC(=O)c1cc(-c2ccc(S(=O)(=O)CCN)c(S(N)(=O)=O)c2-c2nn[nH]n2)cnc1N [compound 337, 2-amino-N-(2-aminoethyl)-5-(4-((2-aminoethyl)sulfonyl)-3-sulfamoyl-2-(2H-tetrazol-5-yl)phenyl)nicotinamide]
P. aeruginosa expressing IMP-1, efflux+ (MB9798) MITC95 [1]: 6.25 µM
Efflux ratio [1]: 8.00
IC50 [2]: 4.38 nM
IC50 [3]: 5.65 nM
IC50 [4]: 12.3 nM
Serratia marcescens MITC95 [5]: 1.563 µM
Escherichia coli MITC95 [6]: 0.7813 µM
Klebsiella pneumoniae MITC95 [7]: 1.563 µM
P. aeruginosa expressing IMP-1, efflux− (MB9799) MITC95 [8]: 0.7813 µM

Nc1ccc(-c2ccc(S(=O)(=O)C3CNC3)c(S(N)(=O)=O)c2-c2nn[nH]n2)cn1 [Example 25, 3-(6-aminopyridin-3-yl)-6-(azetidin-3-ylsulfonyl)-2-(2H-tetrazol-5-yl)benzenesulfonamide]
P. aeruginosa expressing IMP-1, efflux+ (MB9798) MITC95 [1]: 2.302 µM
Efflux ratio [1]: 2.18
IC50 [2]: 0.441 nM
IC50 [3]: 0.532 nM
IC50 [4]: 0.862 nM
Serratia marcescens expressing IMP-1 (CL5741) MITC95 [5]: 0.6719 µM
Escherichia coli expressing NDM-1 (CLB30016) MITC95 [6]: 0.5156 µM
Klebsiella pneumoniae expressing VIM-1 (IHMA599644) MITC95 [7]: 2.135 µM
P. aeruginosa expressing IMP-1, efflux− (MB9799) MITC95 [8]: 1.058 µM

NS(=O)(=O)c1c(S(=O)(=O)C2CNC2)ccc(-c2cccn3cncc23)c1-c1nnn[nH]1 [Example 60, 6-(azetidin-3-ylsulfonyl)-3-(imidazo[1,5-a]pyridin-8-yl)-2-(1H-tetrazol-5-yl)benzenesulfonamide]
P. aeruginosa expressing IMP-1, efflux+ (MB9798) MITC95 [1]: 12.5 µM
Efflux ratio [1]: 4.00
IC50 [2]: 0.408 nM
IC50 [3]: 0.811 nM
IC50 [4]: 2.35 nM
Serratia marcescens expressing IMP-1 (CL5741) MITC95 [5]: 3.125 µM
Escherichia coli expressing NDM-1 (CLB30016) MITC95 [6]: 1.563 µM
Klebsiella pneumoniae expressing VIM-1 (IHMA599644) MITC95 [7]: 6.25 µM
P. aeruginosa expressing IMP-1, efflux− (MB9799) MITC95 [8]: 3.125 µM

Nc1nc2c(-c3ccc(S(=O)(=O)CCO)c(S(N)(=O)=O)c3-c3nn[nH]n3)cccc2c[n+]1[O-] [Example 319, 2-amino-8-(4-((2-hydroxyethyl)sulfonyl)-3-sulfamoyl-2-(2H-tetrazol-5-yl)phenyl)quinazoline 3-oxide]
P. aeruginosa expressing IMP-1, efflux+ (MB9798) MITC95 [1]: 25 µM
Efflux ratio [1]: 2.00
IC50 [2]: 0.407 nM
IC50 [3]: 0.194 nM
IC50 [4]: 1.92 nM
Serratia marcescens MITC95 [5]: 25 µM
Escherichia coli MITC95 [6]: 100 µM
Klebsiella pneumoniae MITC95 [7]: 50 µM
P. aeruginosa expressing IMP-1, efflux− (MB9799) MITC95 [8]: 12.5 µM

Nc1nc2c(-c3ccc(S(=O)(=O)CC4(N)CC4)c(S(N)(=O)=O)c3-c3nn[nH]n3)cccc2s1 [Example 95, 3-(2-aminobenzo[d]thiazol-4-yl)-6-((1-aminocyclopropyl)methylsulfonyl)-2-(2H-tetrazol-5-yl)benzenesulfonamide]
P. aeruginosa expressing IMP-1, efflux+ (MB9798) MITC95 [1]: 3.125 µM
Efflux ratio [1]: 2.00
IC50 [2]: 0.293 nM
IC50 [3]: 0.138 nM
IC50 [4]: 0.221 nM
Serratia marcescens expressing IMP-1 (CL5741) MITC95 [5]: 1.563 µM
Escherichia coli expressing NDM-1 (CLB30016) MITC95 [6]: 1.563 µM
Klebsiella pneumoniae expressing VIM-1 (IHMA599644) MITC95 [7]: 6.25 µM
P. aeruginosa expressing IMP-1, efflux− (MB9799) MITC95 [8]: 1.563 µM

NCCS(=O)(=O)c1ccc(-c2cnn3c2CCC3)c(-c2nnn[nH]2)c1S(N)(=O)=O.O=C(O)C(F)(F)F [Example 152, 2-((4-(5,6-dihydro-4H-pyrrolo[1,2-b]pyrazol-3-yl)-2-sulfamoyl-3-(1H-tetrazol-5-yl)phenyl)sulfonyl)ethanaminium 2,2,2-trifluoroacetate]
P. aeruginosa expressing IMP-1, efflux+ (MB9798) MITC95 [1]: 50 µM
Efflux ratio [1]: 31.99
IC50 [2]: 2.01 nM
IC50 [3]: 5.83 nM
IC50 [4]: 4.79 nM
Serratia marcescens expressing IMP-1 (CL5741) MITC95 [5]: 6.25 µM
Escherichia coli expressing NDM-1 (CLB30016) MITC95 [6]: 3.125 µM
Klebsiella pneumoniae expressing VIM-1 (IHMA599644) MITC95 [7]: 6.25 µM
P. aeruginosa expressing IMP-1, efflux− (MB9799) MITC95 [8]: 1.563 µM

CCOC(=O)N1CC(S(=O)(=O)c2ccc(-c3cccc4[nH]c(N)nc34)c(-c3nn[nH]n3)c2S(N)(=O)=O)C1 [Example 57, ethyl 3-(4-(2-amino-1H-benzo[d]imidazol-4-yl)-2-sulfamoyl-3-(2H-tetrazol-5-yl)phenylsulfonyl)azetidine-1-carboxylate]
P. aeruginosa expressing IMP-1, efflux+ (MB9798) MITC95 [1]: 200 µM
Efflux ratio [1]: 64.00
IC50 [2]: 0.446 nM
IC50 [3]: 0.264 nM
IC50 [4]: 1.98 nM
Serratia marcescens expressing IMP-1 (CL5741) MITC95 [5]: 6.25 µM
Escherichia coli expressing NDM-1 (CLB30016) MITC95 [6]: 6.25 µM
Klebsiella pneumoniae expressing VIM-1 (IHMA599644) MITC95 [7]: 12.5 µM
P. aeruginosa expressing IMP-1, efflux− (MB9799) MITC95 [8]: 3.125 µM

NS(=O)(=O)c1c(S(=O)(=O)C2CN(C(=O)NC3CC3)C2)ccc(-c2ccc(NS(=O)(=O)C3CC3)cc2)c1-c1nn[nH]n1 [Example 245, 3-((4′-(Cyclopropanesulfonamido)-3-sulfamoyl-2-(2H-tetrazol-5-yl)-[1,1′-biphenyl]-4-yl)sulfonyl)-N-cyclopropylazetidine-1-carboxamide]
P. aeruginosa expressing IMP-1, efflux+ (MB9798) MITC95 [1]: 50 µM
Efflux ratio [1]: 8.00
IC50 [2]: 0.218 nM
IC50 [3]: 0.386 nM
IC50 [4]: 0.126 nM
Serratia marcescens MITC95 [5]: 25 µM
Escherichia coli MITC95 [6]: 25 µM
Klebsiella pneumoniae MITC95 [7]: 50 µM
P. aeruginosa expressing IMP-1, efflux− (MB9799) MITC95 [8]: 6.25 µM
